The conditions of the data set: instrument: DT, single field, calibrated with Agilent tune mix (Agilent).

22 compounds from the C3SDB collision cross section collection can be followed below.

As to `O=c1nc[nH]c2c1ncn2[C@@H]1O[C@H](COP(=O)(O)OP(=O)(O)O)[C@@H](O)[C@H]1O` [Inosine diphosphate], the “collision cross section (N2)” value by setting is: ([M+H]+) 185.6 Å²; ([M-H]-) 176.13 Å².
Take `O=c1nc[nH]c2c1ncn2[C@@H]1O[C@H](COP(=O)(O)OP(=O)(O)OP(=O)(O)O)[C@@H](O)[C@H]1O` [Inosine triphosphate]: for the setting “[M-H]-”, the “collision cross section (N2)” value is on record as 187.3 Å².
Take `CC(C)C(=O)SCCNC(=O)CCNC(=O)[C@H](O)C(C)(C)COP(=O)(O)OP(=O)(O)OC[C@H]1O[C@@H](n2cnc3c(N)ncnc32)[C@H](O)[C@@H]1OP(=O)(O)O` [Isobutyryl-CoA]: the “collision cross section (N2)” value is listed as 252 Å² ([M+H]+) and 254.31 Å² ([M-H]-).
As for `CC(C)C(=O)NCC(=O)O` [Isobutyrylglycine], the “collision cross section (N2)” value ([M-H]-) is 132.07 Å².
On the same count and under the same terms, to `CC(C)CCC(=O)O` [Isocaproic acid] belongs 127.48 Å².
Consider `CC(C)CC(=O)NCC(=O)O` [Isovalerylglycine], for which the “collision cross section (N2)” value is recorded as 155.1 Å² ([M+H]+) and 138.14 Å² ([M-H]-).
On to `O=C(O)c1cc(=O)c2ccccc2[nH]1` [Kynurenic acid], for which the “collision cross section (N2)” value ([M+H]+) is listed as 137 Å² and the “collision cross section (N2)” value ([M+Na-2H]-) turned out to be 149.51 Å².
Turning to `O=C1O[C@H]([C@@H](O)CO)C(O)=C1O` [L-Ascorbic acid], the “collision cross section (N2)” value ([M+H]+) came out at 138.6 Å².
Take `C[N+](C)(C)C[C@H](O)CC(=O)[O-]` [L-Carnitine]: the “collision cross section (N2)” value ([M+H]+) is 133.1 Å².
For `N[C@@H](CS(=O)(=O)O)C(=O)O` [L-Cysteic acid], where the note is “[M-H]-”, the “collision cross section (N2)” value is 120.55 Å².
For the compound `OC[C@H](O)[C@@H](O)[C@H](O)[C@@H](O)CO` [L-Iditol], the “collision cross section (N2)” value is 143 Å² ([M+Na]+) and 129.61 Å² ([M-H]-).
Take `CCCCCCCCCCCCCCCC(=O)O[C@H](CC(=O)[O-])C[N+](C)(C)C` [L-Palmitoylcarnitine]: the “collision cross section (N2)” value runs as follows: ([M+H]+) 214 Å²; ([M-H]-) 204.49 Å².
For `CC(C)C[C@H](N)C(=O)N1CCC[C@H]1C(=O)O` [L-leucyl-L-proline], where the note is “[M+H-H2O]+”, the “collision cross section (N2)” value is listed as 149.5 Å².
Same read-out and setting: as for `CC(C)=CCC[C@@H](C)[C@H]1CC[C@@]2(C)C3=C(CC[C@]12C)[C@@]1(C)CC[C@H](O)C(C)(C)[C@@H]1CC3` [Lanosterol], the figure is 207.3 Å².
`C[C@H](CCC(=O)O)[C@H]1CC[C@H]2[C@@H]3CC[C@@H]4C[C@H](O)CC[C@]4(C)[C@H]3CC[C@]12C` [Lithocholic acid]: the “collision cross section (N2)” value is recorded as 193.4 Å² ([M+H-H2O]+) and 199.95 Å² ([M-H]-).
As to `O=P(O)(O)OC1C(OP(=O)(O)O)C(OP(=O)(O)O)C(OP(=O)(O)O)C(OP(=O)(O)O)C1OP(=O)(O)O` (configuration not stated) [Myo-inositol hexakisphosphate], the “collision cross section (N2)” value ([M-H]-) is given as 193.29 Å².
Consider `CCCCCCCCCCCCCC(=O)O` [Myristic acid], for which, for the setting “[M-H]-”, the “collision cross section (N2)” value is 159.21 Å².
Take `CC(=O)N[C@@H](CCCN)C(=O)O` [N2-Acetyl-L-ornithine]: under “[M+H]+”, the “collision cross section (N2)” value was 136.9 Å².
Regarding `CNc1ncnc2c1ncn2[C@@H]1O[C@H](CO)[C@@H](O)[C@H]1O` [N6-methyladenosine], the “collision cross section (N2)” value is, setting by setting: ([M+Na]+) 170.4 Å²; ([M-H]-) 159.67 Å².
In the case of `CC(=O)NCCCCNCCCN` [N8-Acetylspermidine], the “collision cross section (N2)” value by setting is: ([M+H]+) 142.7 Å²; ([M-H]-) 146.34 Å².
Take `CC(=O)N[C@H]1[C@H](O[C@H]2[C@H](O)[C@@H](NC(C)=O)C(O)O[C@@H]2CO)O[C@H](CO)[C@@H](O)[C@@H]1O` (some centres not stated) [N,N'-Diacetylchitobiose]: the “collision cross section (N2)” value ([M+H]+) is 192.9 Å².
As for `NC(=NCCCC(N)C(=O)O)NO` (configuration not stated) [N-(omega)-Hydroxyarginine], the “collision cross section (N2)” value reads like this: ([M+H]+) 139 Å²; ([M-H]-) 138.2 Å².
